Test results: patent publication US20230201632A1, “METHODS FOR FIXING HAIR AND SKIN” (Olaplex, Inc., priority 2013, published 2023)

How the values were obtained:
[1] = Hair breakage after repeated perm, visual inspection; set-up: species or system human; details: perm procedure repeated three times over 48 hours
Experimental: Two hair samples were obtained. Both samples were treated with dithiothreitol or ammonium thioglycolate as described in Example 1. One of the hair samples was subsequently treated with the binding formulation, while the other was neutralized with hydrogen peroxide. The process was completed the same day for the hair treated with the binding formulation. The process was completed in three days with hydrogen peroxide (traditional perm).
The procedure was repeated three times for each hair sample over a 48 hour time period.

[2] = Perm of hair with binding formulation or hydrogen peroxide, 40 wash and dry cycles; set-up: species or system human; details: after 40 cycles of washing and drying with the same shampoo and conditioner; hair reduced with ammonium thioglycolate or dithiothreitol
Experimental: Hair samples were obtained from a human subject and cut in ½ inch wide wefts.
Reducing agents: Ammonium thioglycolate (ATG) was obtained from a permanent wave kit manufactured by Zotos. 300 mg of Dithiothreitol in a 10 g solution was also used as the reducing agent.
Binding formulation: A bismaleate binding agent 2,2′-(ethane-1,2-diylbis(oxy))bis(ethan-1-amine) di-maleate at a concentration of 300 mg in 10 g total solution (water) was used.
The hair was washed with clarifying shampoo, towel dried, and then rolled around a perm rod. Ammonium thioglycolate or dithiothreitol was then applied to the hair and left on the hair for 10 minutes to 1 hour. The hair was then rinsed for 30 seconds to 1 minute and then blotted dry with a towel.
The binding formulation was applied to the hair, via a needle nose applicator, drenching the hair. The binding agent was left on the hair for a period of about 7.5 minutes. The hair was drenched for a second time with the binding formulation and left for a second 7.5 minutes, for a total of 15 minutes. The hair was then rinsed with water for about 1-2 minutes then unrolled from the perm rods. After the hair was removed from the perm rods, the hair was shampooed and conditioned with various salon shampoo and conditioner brands, including LiQWd® Hydrating Shampoo and Hydrating Conditioner. The washing and drying steps were repeated 40 times. […]

## OO [hydrogen peroxide]
[1]
  hair breakage upon visual inspection: significant breakage
[2]
  reduction in the overall curl: only slight reduction in the overall curl
